Experimental data: PubChem BioAssay AID602191 (Broad Institute, 2012)
Active and inactive are the calls of the source.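 Rule for the calls: active = fitted curve reaches 40% activation at a concentration no higher than the top valid tested dose; inconclusive = flat fit between 30% and 70% activation, or poor fit; inactive = uptake decrease, flat fit within 30% of zero, the rest.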 Starred links: 1 amine or outer side, 2 acyl side, 3 side chain; linkers in the order of their positions; H or OH if unused. Non-standard residues stand in square brackets, D forms with d. Residues, ends and D or L forms follow the SMILES beside them. ξ: configuration not given here. X1 = CCCCCCC[C@H](O)C[C@@H](N[*:1])[C@@H](O)C(=O)[*:2]; X3 = COc1ccc(CCCC(N[*:1])C(=O)[*:2])cc1; ξThr(3R) = C[C@@H](O)C(N)C(=O)O; NMeN = CN[C@@H](CC(N)=O)C(=O)O; X2 = C/C=C(/N[*:1])C(=O)[*:2]; Dhb = C/C=C(\N)C(=O)O; Sar = CNCC(=O)O

Target: Scavenger receptor class B member 1 (Mus musculus) (UniProt Q61009)
Experiment: activators of SR-BI-mediated HDL uptake, dose response, cell-based, ldlA[mSR-BI] CHO, DiI fluorescence, cherry-pick (AID 602191);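 note: cell fluorescence from internalized DiI-labeled HDL after washing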;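 for AC40: potency of activators raising HDL uptake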;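 for activation (HDL uptake increase): 0% = median of DMSO wells and 100% = twice the DMSO signal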
Conditions: ldlA[mSR-BI] CHO cells, 3 h

Sequence of Scavenger receptor class B member 1 (Mus musculus) (Q61009 whole entry, looked up): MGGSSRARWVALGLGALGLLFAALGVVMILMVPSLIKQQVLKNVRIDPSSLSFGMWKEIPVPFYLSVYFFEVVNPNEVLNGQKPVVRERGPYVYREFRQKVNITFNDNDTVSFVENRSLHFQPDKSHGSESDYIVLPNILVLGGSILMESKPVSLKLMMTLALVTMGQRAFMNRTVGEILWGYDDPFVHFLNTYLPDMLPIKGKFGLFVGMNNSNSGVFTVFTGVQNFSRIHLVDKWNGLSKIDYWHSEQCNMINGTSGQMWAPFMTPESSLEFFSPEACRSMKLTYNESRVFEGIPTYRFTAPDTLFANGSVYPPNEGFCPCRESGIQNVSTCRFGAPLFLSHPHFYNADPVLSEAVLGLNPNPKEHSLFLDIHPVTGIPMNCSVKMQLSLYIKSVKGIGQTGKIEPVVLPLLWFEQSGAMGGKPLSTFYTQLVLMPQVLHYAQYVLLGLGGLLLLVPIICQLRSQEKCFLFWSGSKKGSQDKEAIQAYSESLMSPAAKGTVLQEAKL

Row | Structure (SMILES) | AC40
1 | O=c1c(C=NCCN2CCNCC2)c(O)n(C2CCCCC2)c(=O)n1C1CCCCC1 | > 35 µM (inactive)
2 | CCN1CCN(c2ccc(S(=O)(=O)N3CCOCC3)cc2NC(=O)C2CCC(C(C)(C)C)CC2)CC1 (centres undefined) | > 35 µM (inactive)
3 | O=C(Cc1ccc(NC(=O)C2CCN(C(=O)C3CC3)CC2)cc1)Nc1ccc(C(=O)N2CCOCC2)cc1 | > 35 µM (inactive)
4 | Cc1c(CCOC(=O)C23CC4(C)CC(C)(CC(C)(C4)C2)C3)sc[n+]1CC(=O)c1ccccc1 | > 35 µM (inactive)
5 | C/C=C1\NC(=O)[C@H](CC(N)=O)N(C)C(=O)C([C@@H](C)O)NC(=O)C(CCCc2ccc(OC)cc2)NC(=O)[C@H](C(C)C)NC(=O)/C(=C\C)NC(=O)[C@H](O)[C@@H](C[C@@H](O)CCCCCCC)NC(=O)[C@H](C)NC(=O)CN(C)C(=O)[C@H](CCC(N)=O)NC1=O (stereo partly drawn) (cyclo(A[X1][X2]V[X3][ξThr(3R)][NMeN][Dhb]Q[Sar])) | 28 µM
6 | O=C(CC1NC(=O)NC1=O)Nc1ccc(Cl)cc1 (centres undefined) | > 35 µM (inactive)

Same assay, conditions: ldlA[mSR-BI] CHO cells, 3 h, at 35 µM (top of the series)

Row | Structure (SMILES) | activation (HDL uptake increase)
7 | COc1ccccc1C(=O)NNC(=S)NC(=O)c1sc2ccccc2c1Cl | -16.5% (inactive)
8 | CCOC(=O)C1CCCN(S(=O)(=O)c2ccc3ccccc3c2)C1 (centres undefined) | -7.01% (inactive)
9 | O=C1N(C2CCCC2)C[C@@H]2C[C@@H](c3cn[nH]c3-c3ccc(Cl)cc3)N3CCC[C@@]123 | 0.818% (inactive)
10 | O=C(O)COCC(=O)N1CCc2c([nH]c3ccccc23)C1C(F)(F)F (centres undefined) | -5.94% (inactive)
11 | CCOC(=O)c1csc(NC(=O)CN2CCN(C)CC2)n1 | 10.4% (inactive)
12 | CCN(CC(=O)Nc1ccc(OC)cc1)C(=O)c1ccc(=O)n(Cc2ccccc2)n1 | -12.4% (inactive)
13 | CC(=O)NC(Cc1ccccc1)C(=O)OCC(=O)c1ccccc1 (centres undefined) | -12% (inactive)
14 | Cc1ccc(N2C(=O)C3C(C(=O)c4ccccc4)=NN(c4ccccc4)C3C2=O)cc1 (centres undefined) | 0.966% (inactive)
15 | CCOc1ccc(N(CC(=O)NC2CCCCCC2)S(=O)(=O)c2ccccc2)cc1 | 11.8% (inactive)
16 | COc1ccccc1NC(=O)CCC(=O)OCc1cccc([N+](=O)[O-])c1 | -10.7% (inactive)
17 | Cc1ccc(OCCC(=O)OCC(=O)NNC(=O)c2ccccc2)cc1 | 8.09% (inactive)
18 | Cc1c(CC(=O)O)c(=O)oc2cc(OCc3ccc(F)cc3Cl)ccc12 | 10.2% (inactive)
19 | O=C(NCc1ccccn1)c1ccc(S(=O)(=O)Nc2ccccc2F)cc1 | 0.427% (inactive)
20 | Cc1cc(C)c2[nH]c(=O)c(CN(CC3CCCO3)C(=O)c3cnccn3)cc2c1 (centres undefined) | -7.36% (inactive)
21 | O=C1N[C@@H](c2ccccc2)COC(=O)[C@H](Cc2ccc(F)cc2)CC/C=C/C[C@H]1CC(=O)N(CCO)Cc1ccccc1 | -5.36% (inactive)
22 | Cc1ccc(-n2ncc3c(=O)n(CC(=O)N4CCN(c5ccccc5F)CC4)cnc32)cc1C | -20.1% (inactive)
23 | CC1CCC(NC(=O)CCNS(=O)(=O)c2ccccc2)CC1 (centres undefined) | 10.2% (inactive)
24 | COc1ccc(C(=O)NNS(=O)(=O)c2ccccc2)cc1OC | -10.5% (inactive)
25 | CCCCCC1CC(CC(=O)O)C(=O)O1 (centres undefined) | -5.76% (inactive)
26 | COCCNC(=O)c1cnn2c1NC(c1ccco1)CC2C(F)(F)F (centres undefined) | -4% (inactive)
27 | CCCCn1c(CN2CCN(C(=O)c3ccco3)CC2)nc2c1c(=O)n(C)c(=O)n2C | 2.07% (inactive)
28 | Cc1ccc(N2C(=O)C(Cc3ccc(O)cc3)NC2=S)cc1C (centres undefined) | -11.4% (inactive)
29 | O=C(OCCc1cc2ccccc2c(=O)o1)c1ccco1 | -0.117% (inactive)
30 | CC(=O)Nc1ccc(OC(=O)c2ccco2)cc1 | -1.69% (inactive)
31 | COc1ccc2c(c1OC)C(=O)OC2CC(=O)O (centres undefined) | 3.81% (inactive)

Row | Structure (SMILES) | activation (HDL uptake increase)
32 | Cc1ccc(O)c(NC(=S)NC(=O)c2ccc(-c3ccc(Cl)cc3)o2)c1 | -9.38% (inactive)
33 | O=C(NCc1cccs1)C1CCCN(C(=O)Nc2ccccc2)C1 (centres undefined) | 7.76% (inactive)
34 | Cc1cc(Cl)ccc1OCC(=O)OCC(=O)N1CCC(C(N)=O)CC1 | -16.7% (inactive)
35 | O=C(NCCCc1ccccc1)c1ccc(CS(=O)Cc2ccc(Cl)cc2)o1 (centres undefined) | 5.61% (inactive)
36 | CC(Oc1ccccc1)C(=O)Nc1cccc(F)c1 (centres undefined) | 5.9% (inactive)
37 | CCCC(=O)OCC(=O)Nc1ccc(OC(F)F)cc1 | 1.74% (inactive)
38 | COc1cccc(CC(=O)Nc2ccccc2C(=O)N2CCOCC2)c1 | 1.38% (inactive)
39 | C=C1[C@@H](OC(C)=O)[C@]23C[C@@H]1[C@@H](OC(C)=O)CC2[C@]12C4C[C@H]3[C@H]1N(CC)C[C@]4(C)CC[C@@H]2O (some centres undefined) | -3.15% (inactive)
40 | CC(C)(C)OC(=O)NCCCC[C@H](NC(=O)c1nc[nH]c1C(=O)NC(c1ccccc1)c1ccccc1)C(=O)OC(C)(C)C | -9.52% (inactive)
41 | CSc1ccc(S(=O)(=O)NCC(=O)OCC(=O)N(C)Cc2ccccc2)cc1[N+](=O)[O-] | 4.31% (inactive)
42 | CN(C)CCCNC(=O)/C=C/c1ccc2c(c1)OCO2 | -4.26% (inactive)
43 | CC(C)CC(=O)c1c(O)c(C=O)c(O)c2c1O[C@@]1(C)[C@@H](C2)C[C@H]2C[C@@H]1C2(C)C | -25.2% (inactive)
44 | O=C(OCc1ccccc1)c1cccc(-c2nnc(-c3ccccc3)o2)c1 | -15.9% (inactive)
45 | Cc1nn(CC(=O)OC(C)C(=O)Nc2ccccc2[N+](=O)[O-])c(C)c1[N+](=O)[O-] (centres undefined) | -9.77% (inactive)
46 | NC(=O)C1CCN(C(=O)C2CC(=O)N(Cc3ccccc3)C2)CC1 (centres undefined) | -2.16% (inactive)
47 | CN(C)CCCNC(=O)Cc1ccc(Br)cc1 | 0.791% (inactive)
48 | CC1CCN(S(=O)(=O)c2ccc3c(c2)c(=O)c(C(=O)N2CCCCC2)cn3C)CC1 | -8.34% (inactive)
49 | C[C@@H]1CN([C@H](C)CO)C(=O)c2cc(NC(=O)Nc3ccc(C(F)(F)F)cc3)ccc2O[C@H]1CN(C)S(=O)(=O)c1ccc(Cl)cc1 | 5.12% (inactive)
50 | Cn1c(C(=O)N2CCC(C(N)=O)CC2)cc2cc(Cl)ccc21 | -7.74% (inactive)
51 | Cc1ccc(OCCOCCN(C)C)c(Cl)c1 | 3.89% (inactive)
52 | Cc1cc(NC(=O)CN2C(=O)NC(C)(c3ccc(OC(F)F)cc3)C2=O)no1 (centres undefined) | -7.97% (inactive)
53 | O=C1NC2NC(=O)N(C(Cc3ccccc3)C(=O)O)C2N1 (centres undefined) | -4.43% (inactive)
54 | CCO[C@H]1OC(C(=O)N2CCOCC2)=C[C@@H](c2ccccc2)[C@@H]1CCCO | -6.57% (inactive)
55 | Cc1ccc(-c2csc(=Nc3cccnc3)n2CCCN2CCCC2=O)cc1C | -13.4% (inactive)
56 | Cc1ccc(C2(CC(=O)N3CCCC3)CCOC(C(C)C)C2)cc1 (centres undefined) | -13.4% (inactive)

Row | Structure (SMILES) | activation (HDL uptake increase)
57 | CCOC(=O)C1CCN(S(=O)(=O)c2cc(C(=O)N3CCCCC3)ccc2OC)CC1 | -3.08% (inactive)
58 | OC(Cc1ccccc1)(c1ccccc1)C1CN2CCC1CC2 (centres undefined) | -3.56% (inactive)
59 | COc1ccc(Oc2nc(Oc3ccc(OC)cc3)nc(Oc3ccc(OC)cc3)n2)cc1 | -9.22% (inactive)
60 | CN1CCN(CCC(=O)Nc2ccccc2Cl)CC1 | -8.52% (inactive)
61 | CCOc1ccc(CN2CCNC(=O)C2CC(=O)NCCCOc2cccnc2)cc1 (centres undefined) | -10.4% (inactive)
62 | Cc1ccc(N(C)C(=O)CN(C)S(=O)(=O)c2ccc3c(c2)n(C)c(=O)c(=O)n3C)cc1 | 8.76% (inactive)
63 | Cc1ccc(N(CC(=O)NC2CCC(C)CC2)S(=O)(=O)c2cccnc2)cc1 (centres undefined) | 6.17% (inactive)
64 | C[C@@H](C(=O)OCC(=O)c1ccccc1)N1C(=O)C2CCCCC2C1=O (some centres undefined) | -7.88% (inactive)
65 | COC(=O)[C@@H]1C[C@@]2(O)[C@H](O)[C@H](O)[C@H](O)C[C@H]2N1Cc1cccc2ccccc12 | 8.8% (inactive)
66 | Cc1ccc(S(=O)(=O)NC(=O)Nc2nnc(C3CC3)s2)cc1 | 9.12% (inactive)
67 | CC(C)NC(=O)c1ccc(CS(=O)(=O)c2ccc(Br)cc2)o1 | -7.98% (inactive)
68 | COc1ccccc1CN1C(=O)CCC1(C)C(=O)NCc1cccnc1 (centres undefined) | -8.82% (inactive)
69 | Cc1ncc(CN2CCC(n3nccc3NC(=O)c3ccccc3)CC2)s1 | 8.83% (inactive)
70 | C=CCn1c(SCC(=O)N(CC)C2CCS(=O)(=O)C2)nnc1-c1ccccc1 (centres undefined) | -7.41% (inactive)
71 | COc1ccc(NC(=O)N(C)C[C@H]2Oc3c(NC(=O)c4ccncc4)cccc3C(=O)N([C@H](C)CO)C[C@@H]2C)cc1 | -11.2% (inactive)
72 | COC(=O)[C@@]12CCCCN1[C@H](c1ccc(-c3ccc(C(C)=O)cc3)c(OC)c1)[C@@H]1C(=O)N(C)C(=O)[C@@H]12 | -14% (inactive)
73 | CC(C)CN(C(=O)CCNC(=O)c1ccccc1Cl)C1CCS(=O)(=O)C1 (centres undefined) | 0.946% (inactive)
74 | O=C(COC(=O)C1CC1)Nc1ccc(OC(F)F)cc1 | 4.41% (inactive)
75 | CC1CC(C)CN(C(=O)CN2CCN(Cc3ccc(Cl)cc3)C2=O)C1 (centres undefined) | -4.58% (inactive)
76 | CC(OC(=O)c1ccc(S(=O)(=O)N2CCCCC2)cc1)C(=O)Nc1ccc(C(N)=O)cc1 (centres undefined) | 0.807% (inactive)
77 | C/C=C(\C)C(=O)OC1CC(C)(C)C[C@H]2C3=CC[C@@H]4[C@@]5(C)CCC(O[C@@H]6O[C@@H](C(=O)O)[C@@H](O)C(O[C@@H]7OC[C@H](O)[C@@H](O)[C@@H]7O[C@@H]7OC(CO)C(O)[C@@H](O)[C@@H]7O)C6O[C@@H]6OC(CO)C(O)C(O)C6O)[C@@](C)(CO)[C@@H]5CC[C@]4(C)[C@]3(C)CC(O)[C@@]12CO (some centres undefined) | -2.08% (inactive)
78 | CCN1CCN(c2ccc(S(=O)(=O)N3CCCCC3)cc2NC(=O)c2cccc(C(F)(F)F)c2)CC1 | 7.47% (inactive)
79 | O=C(COc1ccccc1Cc1ccccc1)Nc1cccnc1 | -14.9% (inactive)
